In patent publication US8802865B2 (Janssen Pharmaceutica, NV, priority 2006, dated 2014):

What was measured:
ventral prostate = experiment: Ventral Prostate Weight in vivo Assay (inhibition of testosterone-enhanced tissue weight); design: key: “active” in the Table below if the non weight adjusted prostate weight was ≦40 mg or the % Inhibition prostate weight, body weight adjusted was ≧40% @ 2 mg/day dosage; listed herein as “inactive” as they did not meet the specified criteria defined above; settings: castrated male Sprague Dawley rats, test compound usually orally once daily with testosterone propionate s.c.; ventral prostate wet weight; criteria at 2 mg/day dosage
Procedure: (§1) Ventral Prostate and Levator Ani Weight in vivo Assay
(§2) Immature (approximately 50 g) castrated male Sprague Dawley rats (Charles River) were treated once daily for five days with test compound (usually given orally at 40 mg/kg in a volume of 0.3 mL, in 30% cyclodextrin or 0.5% methylcellulose vehicle) and with testosterone propionate (given subcutaneously by injection at the nape of the neck at 2 mg/kg, in a volume of 0.1 mL in sesame oil). On the sixth day, the rats were euthanized by asphyxiation in carbon dioxide. Ventral prostates and levator ani were removed and their wet weights determined. Test compound activity was determined as the percent inhibition of testosterone-enhanced tissue weights, with a vehicle-treated control group set to zero percent and a testosterone alone-treated control group set to 100%.
(§3) Mature (150- to 200-g) castrated male Sprague Dawley rats (Charles River) are similarly tested according to the procedure described above. The rats were dosed for two weeks, with 0.4 mg/kg testosterone propionate used as the positive control.
(§4) Representative compounds of the present invention were tested according to the procedure described above, with results as listed in Table 3 below. For effect on prostate—i.e. an antagonist—a test compound is listed as “active” in the Table below if the non weight adjusted prostate weight was ≦40 mg or the % Inhibition prostate weight, body weight adjusted was ≧40% @ 2 mg/day dosage. For effect on levator ani—i.e. an agonist—a test compound is listed as “active” in the Table below if the non weight adjusted levator ani weight was ≧40 mg or the % Stimulation levator ani weight, body weight adjusted was ≧40% at 2 mg/day dosage.

levator ani [1] = experiment: Levator Ani Weight in vivo Assay (stimulation of levator ani weight); design: key: “active” in the Table below if the non weight adjusted levator ani weight was ≧40 mg or the % Stimulation levator ani weight, body weight adjusted was ≧40% at 2 mg/day dosage; listed herein as “inactive” as they did not meet the specified criteria defined above; settings: castrated male Sprague Dawley rats, test compound usually orally once daily with testosterone propionate s.c.; levator ani wet weight; criteria at 2 mg/day dosage
Procedure: as §1, §2, §3, §4

levator ani [2] = experiment: as above; design: key: “active” in the Table below if the non weight adjusted prostate weight was ≦40 mg or the % Inhibition prostate weight, body weight adjusted was ≧40% @ 2 mg/day dosage; listed herein as “inactive” as they did not meet the specified criteria defined above; settings: castrated male Sprague Dawley rats, test compound usually orally once daily with testosterone propionate s.c.; levator ani wet weight; criteria at 2 mg/day dosage
Procedure: as §1, §2, §3, §4

| SMILES | Prostate antagonist (ventral prostate) | L.A. agonist (levator ani [1]) | L.A. agonist (levator ani [2]) |
| --- | --- | --- | --- |
| C=CCC(O)(c1nc2cc(C#N)c(C(F)(F)F)cc2[nH]1)C(F)(F)F (stereo not shown) [Compound 38, 2-(1-Hydroxy-1-trifluoromethyl-but-3-enyl)-6-trifluoromethyl-1H-benzoimidazole-5-carbonitrile] | active | active |  |
| C#CCC(O)(c1nc2cc(Cl)c(Cl)cc2n1C)C(F)(F)F (single isomer, unassigned; (-)) [Compound 37, (−)-Enantiomer of 2-(5,6-Dichloro-1-methyl-1H-benzoimidazol-2-yl)-1,1,1-trifluoro-pent-4-yn-2-ol] | inactive | active |  |
| FC(F)(F)C1(c2nc3cc(Cl)c(Cl)cc3[nH]2)CCCO1 (stereo not shown) [Compound 46, 5,6-Dichloro-2-(2-trifluoromethyl-tetrahydro-furan-2-yl)-1H-benzoimidazole] | active | active |  |
| C/C=C\C(O)(c1nc2cc(Cl)c(Cl)cc2[nH]1)C(F)(F)F (stereo not drawn) [Compound 15, 2-(5,6-Dichloro-1H-benzoimidazol-2-yl)-1,1,1-trifluoro-cis-pent-3-en-2-ol] | active | active |  |
| C=CC(O)(c1nc2cc(Cl)c(Cl)cc2[nH]1)C(F)(F)F (single isomer, unassigned; (+)) [Compound 43, (+)-2-(5,6-dichloro-1H-benzoimidazol-2-yl)-1,1,1-trifluoro-but-3-en-2-ol] | inactive | active |  |
| C=C=CC(O)(c1nc2cc(Cl)c(Cl)cc2[nH]1)C(F)(F)F (single isomer, unassigned; (+)) [Compound 31, (+)-Enantiomer of 2-(5,6-Dichloro-1H-benzoimidazol-2-yl)-1,1,1-trifluoro-penta-3,4-dien-2-ol] | active | active |  |
| C=CC(O)(c1nc2cc(Cl)c(Cl)cc2[nH]1)C(F)(F)F (stereo not shown) [Compound 4, 2-(5,6-Dichloro-1H-benzoimidazol-2-yl)-1,1,1-trifluoro-but-3-en-2-ol] | active | active |  |
| N#CCC(O)(c1nc2cc(Cl)c(Cl)cc2[nH]1)C(F)(F)F (stereo not shown) [Compound 7, 3-(5,6-Dichloro-1H-benzoimidazol-2-yl)-4,4,4-trifluoro-3-hydroxy-butyronitrile] | inactive | active |  |
| C=C=CC(O)(c1nc2cc(Cl)c(Cl)cc2[nH]1)C(F)(F)F (stereo not shown) [Compound 3, 2-(5,6-Dichloro-1H-benzoimidazol-2-yl)-1,1,1-trifluoro-penta-3,4-dien-2-ol] | active | active |  |
| FC(F)(F)C1(c2nc3cc(Cl)c(Cl)cc3[nH]2)C=CCO1 (stereo not shown) [Compound 45, 5,6-Dichloro-2-(2-trifluoromethyl-2,5-dihydro-furan-2-yl)-1H-benzoimidazole] | inactive | active |  |
| C#CCC(O)(c1nc2cc(Cl)c(Cl)cc2[nH]1)C(F)(F)F (stereo not shown) [Compound 2, 2-(5,6-Dichloro-1H-benzoimidazol-2-yl)-1,1,1-trifluoro-pent-4-yn-2-ol] | active | active |  |
| FC(F)(F)C1(c2nc3cc(Cl)c(Cl)cc3n2Cc2ccccn2)OCCO1 [Compound 48] | inactive |  | inactive |
| C=C=C(C)C(O)(c1nc2cc(Cl)c(Cl)cc2[nH]1)C(F)(F)F (stereo not shown) [Compound 6, 2-(5,6-Dichloro-1H-benzoimidazol-2-yl)-1,1,1-trifluoro-3-methyl-pent-3,4-dien-2-ol] | active |  | inactive |
| C=CC(c1ccccc1)C(O)(c1nc2cc(Cl)c(Cl)cc2[nH]1)C(F)(F)F (stereo not shown) [Compound 28, 2-(5,6-Dichloro-1H-benzoimidazol-2-yl)-1,1,1-trifluoro-3-phenyl-pent-4-en-2-ol] | active |  | inactive |
| C=C=CC(O)(c1nc2cc(Cl)c(Cl)cc2[nH]1)C(F)(F)F (single isomer, unassigned; (-)) [Compound 32, (−)-Enantiomer of 2-(5,6-Dichloro-1H-benzoimidazol-2-yl)-1,1,1-trifluoro-penta-3,4-dien-2-ol] | active |  | inactive |
| C=C(C)C(O)(c1nc2cc(Cl)c(Cl)cc2[nH]1)C(F)(F)F (stereo not shown) [Compound 9, 2-(5,6-Dichloro-1H-benzoimidazol-2-yl)-1,1,1-trifluoro-3-methyl-but-3-en-2-ol] | active |  | inactive |
| C#CCC(O)(c1nc2cc(Cl)c(Cl)cc2n1C)C(F)(F)F (single isomer, unassigned; (+)) [Compound 36, (+)-Enantiomer of 2-(5,6-Dichloro-1-methyl-1H-benzoimidazol-2-yl)-1,1,1-trifluoro-pent-4-yn-2-ol] | inactive |  | inactive |
